This is an account of results in patent US20260231590A1, “AROMATIC COMPOUND, ORGANIC SEMICONDUCTOR LAYER AND ORGANIC THIN FILM TRANSISTOR” (TOSOH CORPORATION, priority 2023, published 2026).

Common to all, as to type: physicochemical
Data set [1] is described as follows: Solution for forming an organic semiconductor layer: dissolved in toluene at 50° C., state after cooling to 25° C. The settings on record: 0.44 mg in 434 mg of toluene, heated to 50° C., allowed to cool at room temperature (25° C.).
Experiment in data set [2]: as above
The settings on record: 0.20% by weight in toluene, dissolved at 50° C., after 10 hours at 25° C. On the procedure: In air, 1.74 mg of the 2,8-di(2-cyclohexylethyl)anthra[1,2-b:5,6-b′]dithiophene synthesized in Example 2 (compound 2) and 868 mg of toluene (FUJIFILM Wako Pure Chemical Industries Corporation, pure grade) were added to a 10-ml sample tube. After dissolution by heating to 50° C., the solution was allowed to cool at room temperature (25° C.), whereby a solution for forming an organic semiconductor layer was prepared. […] (the concentration of compound 2 was 0.20% by weight), confirming that compound 2 is a compound suitable for film formation by drop casting and inkjet printing.

A short description of data set [3]: Evaluation of solubility in organic solvents. The settings on record: room temperature (25° C.), complete dissolution by visual observation. As for the experimental part: Toluene and n-octane were each added to predetermined amounts of the aromatic compounds obtained in Examples 1, 4, 5, 6, 7, 8, 9, 12, 13, 14, 15, 18, 19, 20, 22 and 23 to give compositions for film formation. The weight of each organic solvent required to completely dissolve the aromatic compound at room temperature (25° C.) was measured, and solubility (% by weight) was calculated. The determination of the point of complete dissolution was confirmed by visual observation.

Consider `c1ccc(-c2ccc3c(c2)sc2c4ccc(-c5ccccc5)cc4sc32)cc1` [2,7-diphenyl[1]benzothieno[3,2-b][1]benzothiophene], for which, in data set [1], the “state of solution for forming an organic semiconductor layer” value (“state of solution” below) is recorded as “solid precipitation observed”.
With `c1cc2cc(CCC3CCCCC3)sc2c2cc3ccc4cc(CCC5CCCCC5)sc4c3cc12` [Compound 2, 2,8-Di(2-cyclohexylethyl)anthra[1,2-b:5,6-b′]dithiophene], the “state of solution” value in data set [2] was “remained in solution form”.
Take `CCCCCCCCc1cc2ccc3cc4c(ccc5cc(CCCCCCCC)sc54)cc3c2s1` [2,8-dioctylanthra[1,2-b:5,6-b′]dithiophene, reference compound]: the “state of solution” value in data set [2] is on record as “remained in solution form”.
With `CCCCCc1cc2ccc3cc4c(ccc5cc(CCCC6CCCCC6)sc54)cc3c2s1` [Compound 25, 2-(3-Cyclohexylpropyl)-8-pentylanthra[1,2-b:5,6-b′]dithiophene], in data set [2], the “state of solution” value is given as “remained in solution form”.
As for `CCCCCCCCc1ccc(CCc2cc3ccc4cc5c(ccc6cc(CCC7CCCCC7)sc65)cc4c3s2)cc1` [Compound 40, 2-(2-Cyclohexylethyl)-8-(4-octylphenylethyl)anthra[1,2-b:5,6-b′]dithiophene], the “state of solution” value in data set [2] is given as “remained in solution form”.
In the case of `CCCc1cc2ccc3cc4c(ccc5cc(CCC6CCCCC6)sc54)cc3c2s1` [Compound 4, 2-(2-Cyclohexylethyl)-8-propylanthra[1,2-b:5,6-b′]dithiophene], in data set [3], the “Solubility [% by weight] n-octane” value is reported as not below 0.5 % by weight and the “Solubility [% by weight] Toluene” value is given as not below 1.0 % by weight.
Take `c1cc2cc(CCC3CCCCC3)sc2c2cc3ccc4cc(CCC5CCCC5)sc4c3cc12` [Compound 14, 2-(2-Cyclohexylethyl)-8-(2-cyclopentylethyl)anthra[1,2-b:5,6-b′]dithiophene]: in data set [3], the “Solubility [% by weight] n-octane” value is recorded as not below 1.0 % by weight and the “Solubility [% by weight] Toluene” value is on record as not below 1.0 % by weight. For the same compound, the “state of solution” value in data set [2] is recorded as “remained in solution form”.
Take `c1cc2cc(CCC3CCCC3)sc2c2c1-c1c-2ccc2cc(CCC3CCCC3)sc12` [Compound 23, 2,7-Bis(2-cyclopentylethyl)biphenyleno[1,2-b:5,6-b′]dithiophene]: in data set [3], the “Solubility [% by weight] n-octane” value is reported as not below 0.2 % by weight and the “Solubility [% by weight] Toluene” value is recorded as not below 1.0 % by weight.
Consider `c1cc2cc(CCC3CCCC3)sc2c2cc3ccc4cc(CCC5CCCC5)sc4c3cc12` [Compound 10, 2,8-Di(2-cyclopentylethyl)anthra[1,2-b:5,6-b′]dithiophene], for which the “state of solution” value in data set [2] was “remained in solution form”.
Turning to `CCCCCc1cc2ccc3cc4c(ccc5cc(CCC6CCCCC6)sc54)cc3c2s1` [Compound 7, 2-(2-Cyclohexylethyl)-8-pentylanthra[1,2-b:5,6-b′]dithiophene], in data set [3], the “Solubility [% by weight] n-octane” value was not below 0.2 % by weight and the “Solubility [% by weight] Toluene” value is on record as not below 1.0 % by weight.
Regarding `c1cc2ccc3c(c2s1)-c1ccc2cc(CCC4CCCCC4)sc2c1-3` [Compound 19, 2-(2-Cyclohexylethyl) biphenyleno[1,2-b:5,6-b′]dithiophene], in data set [3], the “Solubility [% by weight] n-octane” value is listed as not below 0.5 % by weight and the “Solubility [% by weight] Toluene” value is on record as not below 1.0 % by weight.
In the case of `CC(C)Cc1cc2ccc3cc4c(ccc5cc(CCC6CCCCC6)sc54)cc3c2s1` [Compound 5, 2-(2-Cyclohexylethyl)-8-isobutylanthra[1,2-b:5,6-b′]dithiophene], in data set [3], the “Solubility [% by weight] n-octane” value was not below 0.2 % by weight and the “Solubility [% by weight] Toluene” value is on record as not below 1.0 % by weight.
With `c1cc2ccc3cc4c(ccc5cc(CCC6CCCCC6)sc54)cc3c2s1` [Compound 1, 2-(2-Cyclohexylethyl)anthra[1,2-b:5,6-b′]dithiophene], in data set [3], the “Solubility [% by weight] n-octane” value was not below 0.1 % by weight and the “Solubility [% by weight] Toluene” value is recorded as not below 1.0 % by weight.
Take `CCCCCCc1cc2ccc3cc4c(ccc5cc(CCCC6CCCC6)sc54)cc3c2s1` [Compound 31, 2-(3-Cyclopentylpropyl)-8-hexylanthra[1,2-b:5,6-b′]dithiophene]: in data set [2], the “state of solution” value is reported as “remained in solution form”.
Take `c1cc2ccc3cc4c(ccc5cc(CCCC6CCCCC6)sc54)cc3c2s1` [Compound 15, 2-(3-Cyclohexylpropyl)anthra[1,2-b:5,6-b′]dithiophene]: in data set [3], the “Solubility [% by weight] n-octane” value is on record as not below 0.5 % by weight and the “Solubility [% by weight] Toluene” value was not below 1.0 % by weight.
As for `c1cc2ccc3cc4c(ccc5cc(CCC6CCCC6)sc54)cc3c2s1` [Compound 9, 2-(2-Cyclopentylethyl) anthra[1,2-b:5,6-b′]dithiophene], in data set [3], the “Solubility [% by weight] n-octane” value is given as not below 1.0 % by weight and the “Solubility [% by weight] Toluene” value is on record as not below 1.0 % by weight.
For the compound `CCCCCCc1cc2ccc3cc4c(ccc5cc(CCC6CCCCC6)sc54)cc3c2s1` [Compound 8, 2-(2-Cyclohexylethyl)-8-hexylanthra[1,2-b:5,6-b′]dithiophene], in data set [3], the “Solubility [% by weight] n-octane” value is not below 0.5 % by weight and the “Solubility [% by weight] Toluene” value was not below 1.0 % by weight. Besides, the “state of solution” value in data set [2] is “remained in solution form”.
Take `CCCCCCc1cc2ccc3cc4c(ccc5cc(CCC6CCCC6)sc54)cc3c2s1` [Compound 13, 2-(2-Cyclopentylethyl)-8-hexylanthra[1,2-b:5,6-b′]dithiophene]: in data set [3], the “Solubility [% by weight] n-octane” value is listed as not below 0.5 % by weight and the “Solubility [% by weight] Toluene” value is recorded as not below 1.0 % by weight. Further, the “state of solution” value in data set [2] is listed as “remained in solution form”.
For the compound `CCCCCCc1cc2ccc3cc4c(ccc5cc(CCCC6CCCCC6)sc54)cc3c2s1` [Compound 18, 2-(3-Cyclohexylpropyl)-8-hexylanthra[1,2-b:5,6-b′]dithiophene], in data set [3], the “Solubility [% by weight] n-octane” value was not below 0.2 % by weight and the “Solubility [% by weight] Toluene” value is not below 1.0 % by weight. The “state of solution” value in data set [2] is “remained in solution form”.
On to `c1cc2cc(CCC3CCCCC3)sc2c2c1-c1c-2ccc2cc(CCC3CCCCC3)sc12` [Compound 20, 2,7-Bis(2-cyclohexylethyl)biphenyleno[1,2-b:5,6-b′]dithiophene], for which, in data set [3], the “Solubility [% by weight] n-octane” value is not below 0.5 % by weight and the “Solubility [% by weight] Toluene” value is given as not below 1.0 % by weight. Moreover, in data set [2], the “state of solution” value is given as “remained in solution form”.
Consider `CCCCc1cc2ccc3cc4c(ccc5cc(CCC6CCCCC6)sc54)cc3c2s1` [Compound 6, 2-Butyl-8-(2-cyclohexylethyl)anthra[1,2-b:5,6-b′]dithiophene], for which, in data set [3], the “Solubility [% by weight] n-octane” value is recorded as not below 0.5 % by weight and the “Solubility [% by weight] Toluene” value was not below 1.0 % by weight.
With `CC(C)Cc1cc2ccc3cc4c(ccc5cc(CCC6CCCC6)sc54)cc3c2s1` [Compound 12, 2-(2-Cyclopentylethyl)-8-isobutylanthra[1,2-b:5,6-b′]dithiophene], in data set [3], the “Solubility [% by weight] n-octane” value is on record as not below 0.5 % by weight and the “Solubility [% by weight] Toluene” value was not below 1.0 % by weight. Further, the “state of solution” value in data set [2] is listed as “remained in solution form”.
